Measurements taken from US20050250822A1, “Substituted benzanilide compound and noxious organism controlling agent” (priority 2002, published 2005).
Where two headings read alike, the source gives them in different places.

What was measured:
[1] = test system: diamondback moths (Plutella xylostella) with second instar larvae; experiment: Insecticidal test against diamondback moth (leaf dip); type: in vivo; settings: foliar, 144 h, read-out: insecticidal rate (rate of dead insects)
Procedure: Insecticidal Test Against Diamondback Moth
(§1) A 10% emulsifiable concentrate (depending on the compounds, 25% wettable powder was applied for the test) of the compound of the present invention was diluted with water containing a spreading agent to prepare a chemical solution with a concentration of 100 ppm. To the chemical solution was dipped leaves of Chinese olive for about 10 seconds, and after air-drying, they were placed in a laboratory dish, then, 10 diamondback moths (Plutella xylostella) with second instar larvae per the dish were released therein, and the dish was covered with a lid having holes and contained at a thermostat chamber at 25° C. A number of dead insect(s) after 6 days was counted and a rate of dead insects was calculated in the same manner as in Test Example 1. Incidentally, the test was carried out with two districts.

[2] = test system: Common cutworms (Spodoptera litura) with second instar larvae; experiment: Insecticidal test against common cutworm (leaf dip); type: in vivo; settings: foliar, 144 h, read-out: insecticidal rate (rate of dead insects)
Procedure: Insecticidal Test Against Common Cutworm
as §1, with “10 Common cutworms (Spodoptera litura)” for “10 diamondback moths (Plutella xylostella)”, “calculated by” for “calculated in”, “the following calculation formula.” for “the same manner as in Test Example 1.”, “districts. Rate of dead insects (%)=(Number of dead insects/Number of released insects)×100” for “districts.”

[3] = chemical solution 100 ppm, leaf dip, 25° C., dead insects counted after 6 days

Row | SMILES | pest or weed control at 100 ppm [1, 3] [%] | pest or weed control at 100 ppm [2, 3] [%] | pest or weed control at 100 ppm [1] [%] | pest or weed control at 100 ppm [2] [%]
1 | Cc1cc(C2(C(F)(F)F)CC(c3ccc([S+](C)[O-])cc3)=NO2)ccc1NC(=O)c1cccc(I)c1C(=O)NC(C)C (stereo not drawn) [2-037, 3-Iodo-N 2 isopropyl-N^1-[4-[3-(4-methylsulfinylphenyl)-5-trifluoromethyl-4,5-dihydroisoxazol-5-yl]-2-methylphenyl]phthalic diamide] | ≥ 80 | ≥ 80 |  | 
2 | Cc1cc(C2(C(F)(F)F)CC(c3ccc(C#N)cc3)=NO2)ccc1NC(=O)c1cccc(I)c1C(=O)NC(C)C (stereo not drawn) [2-046, N^1-[4-[3-(4-cyanophenyl)-5-trifluoromethyl-4,5-dihydroisoxazol-5-yl]-2-methylphenyl]-3-iodo-N^2-isopropylphthalic diamide] | ≥ 80 | ≥ 80 |  | 
3 | Cc1cc(C2(C(F)(F)F)CC(c3ccc(C(N)=O)cc3)=NO2)ccc1NC(=O)c1cccc(I)c1C(=O)NC(C)C (stereo not drawn) [2-048, N^1-[4-[3-(4-carbamoylphenyl)-5-trifluoromethyl-4,5-dihydroisoxazol-5-yl]-2-methylphenyl]-3-iodo-N^2-isopropylphthalic diamide] | ≥ 80 | ≥ 80 |  | 
4 | Cc1cc(C2(C(F)(F)C(F)(F)C(F)(F)F)CC(c3ccc(Cl)cc3)=NO2)ccc1NC(=O)c1cccc(I)c1C(=O)NC(C)C (stereo not drawn) [2-059, N^1-[4-[3-(4-chlorophenyl)-5-heptafluoropropyl-4,5-dihydroisoxazol-5-yl]-2-methylphenyl]-3-iodo-N^2-isopropylphthalic diamide] |  |  | ≥ 80 | ≥ 80
5 | CSCC(C)NC(=O)c1c(I)cccc1C(=O)Nc1ccc(C2(C(F)(F)F)CC(c3ccc(Cl)cc3)=NO2)cc1C (stereo not drawn) [2-095, N^1-[4-[3-(4-chlorophenyl)-5-trifluoromethyl-4,5-dihydroisoxazol-5-yl]-2-methylphenyl]-3-iodo-N^2-(1-methyl-2-methylthioethyl)phthalic diamide] | ≥ 80 | ≥ 80 |  | 
6 | Cc1cc(C2(C(F)(F)F)CC(c3ccc(F)cc3)=NO2)ccc1NC(=O)c1cccc([N+](=O)[O-])c1C(=O)NC(C)C (stereo not drawn) [2-167, N^1-[4-[3-(4-fluorophenyl)-5-trifluoromethyl-4,5-dihydroisoxazol-5-yl]-2-methylphenyl]-3-nitro-N^2-isopropylphthalic diamide] | ≥ 80 | ≥ 80 |  | 
7 | Cc1cc(C2(C(F)(F)F)CC(c3ccc(F)cc3)=NO2)ccc1NC(=O)c1cccc(N)c1C(=O)NC(C)C (stereo not drawn) [2-170, 3-Amino-N^1-[4-[3-(4-fluorophenyl)-5-trifluoromethyl-4,5-dihydroisoxazol-5-yl]-2-methylphenyl]-N^2-isopropylphthalic diamide] | ≥ 80 | ≥ 80 |  | 
8 | CC1=NOC(c2ccc(Cl)cc2)(c2ccc(NC(=O)c3cccc(I)c3C(=O)NC(C)C)c(C)c2)C1 (stereo not drawn) [3-006, N^1-[4-[5-(4-chlorophenyl)-3-methyl-4,5-dihydroisoxazol-5-yl]-2-methylphenyl]-3-iodo-N^2-isopropylphthalic diamide] | ≥ 80 | ≥ 80 |  | 
9 | Cc1cc(C2(C(F)(F)F)CN=C(c3ccc(Cl)cc3)S2)ccc1NC(=O)c1cccc(I)c1C(=O)NC(C)C (stereo not drawn) [4-04, N^1-[4-[2-(4-chlorophenyl)-5-trifluoromethyl-4,5-dihydrothiazol-5-yl]-2-methylphenyl]-3-iodo-N^2-isopropylphthalic diamide] | ≥ 80 | ≥ 80 |  | 
10 | Cc1cc(C2(C(F)(F)F)ON=C(c3ccc(F)cc3)O2)ccc1NC(=O)c1cccc(I)c1C(=O)NC(C)C (stereo not drawn) [4-05, N^1-[4-[3-(4-fluorophenyl)-5-trifluoromethyl-1,4,2-dioxazolin-5-yl]-2-methylphenyl]-3-iodo-N 2-isopropylphthalic diamide] | ≥ 80 | ≥ 80 |  | 
11 | Cc1cc(C2(C(F)(F)F)CC(c3ccc(Cl)cc3)=NN2C)ccc1NC(=O)c1cccc(I)c1C(=O)NC(C)C (stereo not drawn) [6-04, N^1-[4-[3-(4-chlorophenyl)-1-methyl-5-trifluoromethyl-4,5-dihydropyrazol-5-yl]-2-methylphenyl]-3-iodo-N^2-isopropylphthalic diamide] | ≥ 80 | ≥ 80 |  | 
12 | Cc1cc(C2(C(F)(F)F)OCC(c3ccc(Cl)cc3)O2)ccc1NC(=O)c1cccc(I)c1C(=O)NC(C)C (stereo not drawn) [7-03, N^1-[4-[4-(4-chlorophenyl)-2-trifluoromethyl-1,3-dioxolan-2-yl]-2-methylphenyl]-3-iodo-N^2-isopropylphthalic diamide] | ≥ 80 | ≥ 80 |  | 
13 | Cc1cc(C2(C(F)(F)F)C=NC(c3ccccc3)C2)ccc1NC(=O)c1cccc(I)c1C(=O)NC(C)C (stereo not drawn) [7-04, 3-Iodo-N^2-isopropyl-N^1-[2-methyl-4-(2-phenyl-4-trifluoromethyl-3,4-dihydro-2H-pyrrol-4-yl)phenyl]phthalic diamide] | ≥ 80 | ≥ 80 |  | 
14 | CC1=NC(c2ccc(Cl)cc2)=CC(c2ccc(NC(=O)c3cccc(I)c3C(=O)NC(C)C)c(C)c2)(C(F)(F)F)N1 (stereo not drawn) [8-01, N^1-[4-[6-(4-chlorophenyl)-2-methyl-4-trifluoromethyl-3,4-dihydropyrimidin-4-yl]-2-methylphenyl]-3-iodo-N^2-isopropylphthalic diamide] | ≥ 80 | ≥ 80 |  | 
15 | Cc1cc(C2(C(F)(F)F)CC2(C#N)C#N)ccc1NC(=O)c1cccc(I)c1C(=O)NC(C)C (stereo not drawn) [9-001, N^1-[4-(2,2-dicyano-1-trifluoromethylcyclopropyl)-2-methylphenyl]-3-iodo-N^2-isopropylphthalic diamide] | ≥ 80 | ≥ 80 |  | 
16 | CSCC(C)NC(=O)c1c(I)cccc1C(=O)Nc1ccc(C2(c3ccc(Cl)cc3)CC2(F)F)cc1C (stereo not drawn) [9-026, N^1-[4-(2,2-difluoro-1-(4-chlorophenyl)cyclopropyl)-2-methylphenyl]-3-iodo-N^2-(1-methyl-2-methylthioethyl)phthalic diamide] | ≥ 80 | ≥ 80 |  | 
17 | CSCC(C)NC(=O)c1c(I)cccc1C(=O)Nc1ccc(C2(c3ccc(Cl)cc3)CC2(Cl)Cl)cc1C (stereo not drawn) [9-041, N^1-[4-(2,2-dichloro-1-(4-chlorophenyl)cyclopropyl)-2-methylphenyl]-3-iodo-N^2-(1-methyl-2-methylthioethyl)phthalic diamide] |  |  | ≥ 80 | ≥ 80
18 | Cc1cc(C2(c3ccc(Cl)cc3)CC2(F)F)ccc1NC(=O)c1cccc(I)c1C(=O)NC(C)CS(C)(=O)=O (stereo not drawn) [9-065, N^1-[4-(2,2-difluoro-1-(4-chlorophenyl)cyclopropyl)-2-methylphenyl]-3-iodo-N^2-(1-methyl-2-methylsulfonylethyl)phthalic diamide] | ≥ 80 | ≥ 80 |  | 
